# Measured values reported in paper PMC10196813 (Angewandte Chemie (International ed. in English), 2023).
# Peptide text beside a SMILES is read from it. * marks the point of attachment. Cbz = O=C(OCc1ccccc1)*
# Tested on: PTP1B/TC-PTP
# Assay type: cell-based
# Settings: HEK293 cells, followed by 4 h DU-14 at 100 nM
row,Structure (SMILES),effect of pre-treatment/addition on DU-14 mediated PTP1B and TC-PTP degradation
1,NS(=O)(=O)OC[C@@H]1C[C@@H](n2ccc3c(N[C@H]4CCc5ccccc54)ncnc32)C[C@@H]1O [MLN-4924],markedly reduced
2,"Cc1ncsc1-c1ccc([C@H](C)NC(=O)[C@@H]2C[C@@H](O)CN2C(=O)[C@@H](N)C(C)(C)C)cc1 [(S,R,S)-AHPC-Me]",reduced
3,Nc1cccc2c1CN(C1CCC(=O)NC1=O)C2=O (stereo not shown) [Lenalidomide],had no effect
4,CC(C)C[C@@H](C=O)NC(=O)[C@H](CC(C)C)NC(=O)[C@H](CC(C)C)NC(=O)OCc1ccccc1 [MG-132] (Cbz-Leu-Leu-Leu-aldehyde),markedly reduced
